We go through one substance from US20150374705A1, “Substances for treatment or relief of pain” (Shanghai Institues for Biological Sciences, priority 2012, published 2015).

What all share (assay type): in vivo
In series [1] the test system is CFA induced inflammatory pain model rats (heat pain). Nature of the series: CFA induced inflammatory pain model, heat pain threshold. As to conditions: rat, spinal injection the day before CFA, measured every day.
For series [2], the system named is CFA induced inflammatory pain model rats (mechanical pain). Nature of the series: CFA induced inflammatory pain model, mechanical pain threshold. As to conditions: rat, spinal injection the day before CFA, measured every day.
In series [3] the test system is SNI model rats (neuropathic pain). Description: Spared nerve injury (SNI) model, neuropathic pain, mechanical pain threshold. As to conditions: rat, intrathecal injection 7 days after SNI, threshold at 9-17 days. The method, then:
Male SD rats (200-250 g) were used, 6 per group in the cage. All the animals were placed under 12 hours light/cycle (i.e. 12 hours light and 12 hours dark in each day), free to food and water. All the experiments were conducted under the condition that the observers were blind to pharmaceutical treatment.
Spared nerve injury model (SNI): 10% chloral hydrate was injected intraperitoneally to anesthetize rats. […] The muscle was longitudinally separated to expose the core of sciatic nerve and the branching below: tibial nerve, common peroneal nerve and sural nerve. The tibial nerve and common peroneal nerve were ligatured and cut and small sural nerve was retained, meanwhile preventing any injury. The muscle and skin were sutured layer by layer, and then antibiotics were injected intraperitoneally for antibacterial purpose. For detailed methods, please refer to Decosterd I and Woolf C J. Spared nerve injury: an animal model of persistent peripheral neuropathic pain. 2000 August; Pain 87(2):149-58.
Method for detecting mechanical hyperalgesia in rats: firstly CFA solution was injected in the thenar of rats. After 24 hours, mechanical hyperalgesia quantitative detection was adopted to measure the paw withdrawal of rats to normal and harmless mechanical stimulation. Evaluation was conducted according to reference (Chaplan S R et al., Quantitative assessment of tactile allodynia in the rat paw. J Neurosci Methods. 1994 July; 53(1):55-63). In this method, the von Frey fibers with different bending force (equivalent to the range of 1-50 g force) were used to apply harmless mechanical stimulation. The rats were placed in organic glass box with metal mesh plate, and the von Frey fibers were applied on the surface of leg thenar. The von Frey fibers were applied vertically to the surface of thenar to generate the force that will trigger slight resistance to the leg. 2-3 seconds were maintained for every leg thenar. If the leg withdrew suddenly, positive records were recorded. The threshold was the mean of the weight that caused 50% paw withdrawal response (5-6 paw withdrawal/10 stimulations) in overall 10 stimulations.
Compounds MRK 016, C2, C3, C4, C5, C6, C7, C8 or α5IA (A5I) were dissolved in 70% PGE400 (PGE400:water=70:30 in volume). For injection dose, MRK016 was 2 mg/kg body weight; A5I was 3 mg/kg body weight; C2, C3, C4, C5, C6, C7 and C8 were 3 mg/kg body weight.
MRK016-M3 was dissolved in 90% PGE400 (PGE400:water=90:10 in volume). The doses were 10 mg/kg, 3 mg/kg, 1 mg/kg and 0.3 mg/kg, respectively for oral administration.
The method for behavioral data statistics was unpaired t-test. *, p<0.05, represents significant difference.

For series [4], the system named is α5 subunit protein of GABAA receptor in dorsal root ganglion. Description: Knock-down of α5 subunit of GABAA receptor in dorsal root ganglion, western blot. To be noted: rat, intrathecal injection. The method, then:
In western blot experiment, obtained dorsal root ganglion was lysed in RIPA (50 mM Tris (pH7.4), 150 mM NaCl, 1% Triton X-100, 1% sodium deoxycholate, 0.1% SDS as well as sodium orthovanadate, sodium fluoride, EDTA and leupeptin. The proteins were boiled at 100° C. for 5 minutes for denaturation. 10-20 μl samples were added into the prepared channels after the protein samples became cool. Then, electrophoresis was conducted at 60 V for 30 minutes. After the samples passed the boundary between the upper layer gel and the lower layer gel, the voltage was adjusted to 90 V until bromophenol blue reached the lower edge of the lower layer gel. After electrophoresis, the SDS gel that contained target bands was cut for transferring. Through electric transferring, the negative charged proteins were transferred to positive charged PVDF membrane. The blocking buffer that contained 5% skim milk powder was used to block the membrane for 1 hour to reduce unspecific binding. Then, the PVDF membrane was immersed in the blocking buffer containing primary antibody and incubated overnight at 4° C. or 1-2 hours at room temperature. […] Finally, PVDF membrane was incubated with the substrate of horse radish peroxidase ECL-PLUS for 5 minutes in dark to produce fluorescence signal. Then X-ray film was used to capture the fluorescence signal on PVDF membrane. […]
Background: A western blot detects proteins with antibodies after separation by electrophoresis.

As to “siRNA specific to the mRNA of α5-GABAA receptor: siRNA, sequence 5′GGUGCGAACAGACAUCUAUTT 3′ (chemistry not given here)”, the “Heat pain threshold after siRNA” value in series [1] is “inhibit the inflammatory pain efficiently”. In addition, the “Mechanical pain threshold after siRNA” value in series [2] is “inhibit the inflammatory pain efficiently”. Further, the “Pain threshold in SNI model after siRNA” value in series [3] is reported as “significantly elevated pain threshold”. In addition, the “Expression of the α5 subunit of GABAA receptor in dorsal root ganglion” value in series [4] is recorded as “significantly knocked-out the expression”.
